Where a name gives a salt, the structure may show the parent alone.
Tested on: Phosphorylated Ribosomal Protein S6 (RPS6) in THP-1 cells
Assay: THP-1 RPS6 ELISA Assay
Format: cell-based, Human
Conditions: Homo sapiens, THP-1, read-out: PI3Kγ_THP1_RPS6_ELISA IC50 (nM)
Procedure: To measure the Phosphorylated Ribosomal Protein S6 (RPS6) in cell lysates, THP-1 cells (Human Acute Monocytic Leukemia) are purchased from ATCC (Manassas, Va.) and maintained in RPMI with 10% FBS (Gibco/Life Technologies, Carlsbad, Calif.). For the assay, THP-1 cells are serum starved overnight in RPMI, then plated in RPMI (2×10^5 cells/well in 90 μL) into 96-well flat-bottom tissue culture treated plates (Corning, Corning, N.Y.), in the presence or absence of a concentration range of test compounds. Covered plates are incubated for 2 hours at 37° C., 5% CO2 then treated with or without 10 nM MCP-1(MYBioSource, San Diego, Calif.) for 15 minutes at 37° C., 5% CO2. Plates are centrifuged at 1600 RPM and supernatants are removed. Cells are lysed in Lysis Buffer (Cell Signaling, Danvers, Mass.) with Protease Inhibitor (Calbiochem/EMD, Germany), PMSF (Sigma, St Louis Mo.), HALTS (Thermo Fisher, Rockford, Ill.) for 30 min on wet ice. Cell lysates are frozen at −80 OC before testing. The lysates are tested in the Human/Mouse/Rat Phospho-RPS6 ELISA (R&D Systems, Inc. Minn, Minn.). The plate is measured using a microplate reader (SpectraMax M5—Molecular Devices, LLC Sunnyvale, Calif.) set to 450 nm with a wavelength correction of 540. IC50 determination is performed by fitting the curve of inhibitor percent inhibition versus the log of the inhibitor concentration using the GraphPad Prism 5.0 software.

Compound | IC50 [nM]
Cc1ccc(C(O)(C(N)=O)C(F)(F)F)cc1-c1cnc(N)c(N2CCN(c3ccccn3)CC2)n1 (stereo not shown) [Example 117, 2-(3-(5-amino-6-(4-(pyridin-2-yl)piperazin-1-yl)pyrazin-2-yl)-4-methylphenyl)-3,3,3-trifluoro-2-hydroxypropanamide trifluoroacetate] | < 100

Same assay, conditions: Homo sapiens; Table A2; THP-1 cells, 10 nM MCP-1; read-out: PI3Kγ_THP1_RPS6_ELISA IC50

Compound | IC50 [nM]
Cc1ccc(C(O)(C(N)=O)C(F)(F)F)cc1-c1cnc(N)c(C#CC2(O)CCN(C)C2=O)n1 (stereo not shown) [Example 65, 2-(3-(5-amino-6-((3-hydroxy-1-methyl-2-oxopyrrolidin-3-yl)ethynyl)pyrazin-2-yl)-4-methylphenyl)-3,3,3-trifluoro-2-] | < 100

Same assay, conditions: Homo sapiens; Table A3; THP-1 cells, 10 nM MCP-1; read-out: PI3Kγ_THP1_RPS6_ELISA IC50

Compound | IC50 [nM]
Cc1ccc(C(O)(C(N)=O)C(F)(F)F)cc1-c1cnc(N)c(-c2ccnn2C)n1 (stereo not shown) [Example 69, 2-(3-(5-Amino-6-(1-methyl-1H-pyrazol-5-yl)pyrazin-2-yl)-4-methylphenyl)-3,3,3-trifluoro-2-hydroxypropanamide trifluoroacetate] | < 100
Cc1ccc(-c2nc(-c3cc(C(O)(C(N)=O)C(F)(F)F)ccc3C)cnc2N)cn1 (stereo not shown) [Example 82, 2-(3-(5-amino-6-(6-methylpyridin-3-yl)pyrazin-2-yl)-4-methylphenyl)-3,3,3-trifluoro-2-hydroxypropanamide bistrifluoroacetate] | < 500
Cc1ccc(C(O)(C(N)=O)C(F)(F)F)cc1-c1cnc(N)c(-c2ccc(C(F)(F)F)nc2)n1 (stereo not shown) [Example 83, 2-(3-(5-amino-6-(6-(trifluoromethyl)pyridin-3-yl)pyrazin-2-yl)-4-methylphenyl)-3,3,3-trifluoro-2-hydroxypropanamide bistrifluoroacetate] | < 500
Cc1ccc(C(O)(C(N)=O)C(F)(F)F)cc1-c1cnc(N)c(-c2cnc(C3CC3)s2)n1 (stereo not shown) [Example 84, 2-(3-(5-amino-6-(2-cyclopropylthiazol-5-yl)pyrazin-2-yl)-4-methylphenyl)-3,3,3-trifluoro-2-hydroxypropanamide trifluoroacetate] | < 500
Cc1ccc(C(O)(C(N)=O)C(F)(F)F)cc1-c1cnc(N)c(-c2ccnc(CO)c2)n1 (stereo not shown) [Example 85, 2-(3-(5-amino-6-(2-(hydroxymethyl)pyridin-4-yl)pyrazin-2-yl)-4-methylphenyl)-3,3,3-trifluoro-2-hydroxypropanamide bistrifluoroacetate] | < 500
Cc1ccc(C(O)(C(N)=O)C(F)(F)F)cc1-c1cnc(N)c(-c2ccc(CC#N)cc2)n1 (stereo not shown) [Example 87, 2-(3-(5-amino-6-(4-(cyanomethyl)phenyl)pyrazin-2-yl)-4-methylphenyl)-3,3,3-trifluoro-2-hydroxypropanamide trifluoroacetate] | < 500
Cc1ccc(C(O)(C(N)=O)C(F)(F)F)cc1-c1cnc(N)c(-c2ccc(CO)cc2)n1 (stereo not shown) [Example 88, 2-(3-(5-amino-6-(4-(hydroxymethyl)phenyl)pyrazin-2-yl)-4-methylphenyl)-3,3,3-trifluoro-2-hydroxypropanamide trifluoroacetate] | < 500
CNC(=O)c1ccc(-c2nc(-c3cc(C(O)(C(N)=O)C(F)(F)F)ccc3C)cnc2N)cc1 (stereo not shown) [Example 89, 4-(3-amino-6-(5-(3-amino-1,1,1-trifluoro-2-hydroxy-3-oxopropan-2-yl)-2-methylphenyl)pyrazin-2-yl)-N-methylbenzamide trifluoroacetate] | < 500
Cc1ccc(C(O)(C(N)=O)C(F)(F)F)cc1-c1cnc(N)c(-n2cccn2)n1 (stereo not shown) [Example 93, 2-(3-(5-Amino-6-(1H-pyrazol-1-yl)pyrazin-2-yl)-4-methylphenyl)-3,3,3-trifluoro-2-hydroxypropanamide] | < 100
CNC(=O)C(O)(c1ccc(C)c(-c2cnc(N)c(-n3cncn3)n2)c1)C(F)(F)F (stereo not shown) [Example 94, 2-(3-(5-Amino-6-(1H-1,2,4-triazol-1-yl)pyrazin-2-yl)-4-methylphenyl)-3,3,3-trifluoro-2-hydroxy-N-methylpropanamide trifluoroacetate] | < 100
Cc1ccc(C(O)(C(N)=O)C(F)(F)F)cc1-c1cnc(N)c(-c2ccc(B(O)O)cc2)n1 (stereo not shown) [Example 97, (4-(3-Amino-6-(5-(3-amino-1,1,1-trifluoro-2-hydroxy-3-oxopropan-2-yl)-2-methylphenyl)pyrazin-2-yl)phenyl)boronic acid] | < 500
Cc1ccc(C(O)(C(N)=O)C(F)F)cc1-c1cnc(N)c(-c2ccnn2C)n1 (stereo not shown) [Example 98, 2-(3-(5-Amino-6-(1-methyl-1H-pyrazol-5-yl)pyrazin-2-yl)-4-methylphenyl)-3,3-difluoro-2-hydroxypropanamide] | < 100
Cc1ncc(-c2nc(-c3cc(C(O)(C(N)=O)C(F)F)ccc3C)cnc2N)o1 (stereo not shown) [Example 100, 2-(3-(5-amino-6-(2-methyloxazol-5-yl)pyrazin-2-yl)-4-methylphenyl)-3,3-difluoro-2-hydroxypropanamide] | < 100
Cc1ccc(C(O)(C(N)=O)C(F)F)cc1-c1cnc(N)c(-c2cnn(C)n2)n1 (stereo not shown) [Example 101, 2-(3-(5-amino-6-(2-methyl-2H-1,2,3-triazol-4-yl)pyrazin-2-yl)-4-methylphenyl)-3,3-difluoro-2-hydroxypropanamide] | < 100
Cc1ccc(C(O)(CNC=O)C(F)(F)F)cc1-c1cnc(N)c(-c2cnc(C3CC3)s2)n1 (stereo not shown) [Example 102, N-(2-(3-(5-amino-6-(2-cyclopropylthiazol-5-yl)pyrazin-2-yl)-4-methylphenyl)-3,3,3-trifluoro-2-hydroxypropyl)formamide trifluoroacetate] | < 100
CC(=O)NCC(O)(c1ccc(C)c(-c2cnc(N)c(-c3cnn(CC(F)(F)F)c3)n2)c1)C(F)(F)F (stereo not shown) [Example 104, N-(2-(3-(5-amino-6-(1-(2,2,2-trifluoroethyl)-1H-pyrazol-4-yl)pyrazin-2-yl)-4-methylphenyl)-3,3,3-trifluoro-2-hydroxypropyl)acetamide trifluoroacetate] | < 100
CC(=O)NCC(O)(c1ccc(C)c(-c2cnc(N)c(-c3cn[nH]c3)n2)c1)C(F)(F)F (stereo not shown) [Example 105, N-(2-(3-(5-amino-6-(1H-pyrazol-4-yl)pyrazin-2-yl)-4-methylphenyl)-3,3,3-trifluoro-2-hydroxypropyl)acetamide trifluoroacetate] | < 100
Cc1ccc(C(O)(C(N)=O)C(F)(F)F)cc1-c1cnc(N)c(C(=O)Nc2ccnn2C)n1 (stereo not shown) [Example 106, 3-amino-6-(5-(3-amino-1,1,1-trifluoro-2-hydroxy-3-oxopropan-2-yl)-2-methylphenyl)-N-(1-methyl-1H-pyrazol-5-yl)pyrazine-2-carboxamide trifluoroacetate] | < 100

Same assay, conditions: Homo sapiens; Table A4; THP-1 cells, 10 nM MCP-1; cells given with + symbol; read-out: PI3Kγ_THP1_RPS6_ELISA IC50

Compound | IC50 [nM]
CC(=O)N1CCN(c2nc(-c3cc(C(O)(C(N)=O)C(F)(F)F)ccc3C)cnc2N)CC1 (stereo not shown) [Example 114, 2-(3-(6-(4-acetylpiperazin-1-yl)-5-aminopyrazin-2-yl)-4-methylphenyl)-3,3,3-trifluoro-2-hydroxypropanamide trifluoroacetate] | < 100
Cc1ccc([C@@](O)(C(N)=O)C(F)(F)F)cc1-c1cnc(N)c(N2CCN(C(=O)C3CC3)CC2)n1 [Example 115, (R)-2-(3-(5-amino-6-(4-(cyclopropanecarbonyl)piperazin-1-yl)pyrazin-2-yl)-4-methylphenyl)-3,3,3-trifluoro-2-hydroxypropanamide trifluoroacetate] | < 100

Reference: patent US11046658B2, “Aminopyrazine derivatives as PI3K-γ inhibitors” (Incyte Corporation, priority 2018, dated 2021)
